Laboratory results taken from patent US12589104B2, “Thiosaccharides for use in treating coronavirus infection” (priority 2020, dated 2026).

Molecular target: SARS-CoV-2 RBD^N501Y binding to ACE2 (Severe acute respiratory syndrome coronavirus 2, UniProt P0DTC2, N501Y)

In the case of `NCCS` [Cysteamine], the “inhibition of binding of RBD^N501Y to ACE2” value is reported as “potently inhibited”.
